Laboratory results reported in patent US20220323406A1, “METHODS AND COMPOSITIONS FOR DIFFERENTIATING STEM CELLS” (Massachusetts Institute of Technology, priority 2019, published 2022).

Key:
[1] = test system: ENR+CD organoids; assay: Primary screen: ATP (CellTiter-Glo 3D, CTG) cell number/viability, 2.5-D 384-well ENR+CD organoids; conditions: primary screen;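 note: compounds given at plating and again on day 3 over a 6-day differentiation from ENR+CV stem-cell-enriched precursors, ATP measured on day 6, plate median as control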
[2] = test system: ENR+CD organoids (ISC to Paneth cell differentiation); assay: Primary screen: CCh-stimulated lysozyme secretion LYZ.S, 2.5-D 384-well ENR+CD organoid differentiation; format: cell-based, mouse; conditions: primary screen
Excerpt: (§1) High-throughput screening.

[3] = test system: ENR+CD organoids (ISC to Paneth cell differentiation); assay: Primary screen: basal (non-stimulated) lysozyme secretion LYZ.NS, 2.5-D 384-well ENR+CD organoid differentiation; format: cell-based, mouse; conditions: primary screen; for Z.LYZ.NS: standard z score
Excerpt: as §1

SMILES: O=c1oc2cc(O)ccc2s1 [Tioxolone]
- Dose.FC.CTG ([1]; dose 0.08 uM): 0.246 log2 fold change
- Dose.FC.CTG ([1]; dose 0.40 uM): 0.089 log2 fold change
- Dose.FC.CTG ([1]; dose 2.00 uM): 0.044 log2 fold change
- Dose.FC.CTG ([1]; dose 10.00 uM): 0.328 log2 fold change
- Dose.FC.LYZ.S ([2]; dose 0.08 uM): 0.149 log2 fold change
- Dose.FC.LYZ.S ([2]; dose 0.40 uM): 0.000 log2 fold change
- Dose.FC.LYZ.S ([2]; dose 2.00 uM): 0.023 log2 fold change
- Dose.FC.LYZ.S ([2]; dose 10.00 uM): 0.028 log2 fold change
- Dose.FC.LYZ.NS ([3]; dose 0.08 uM): 0.099 log2 fold change
- Z.LYZ.NS (standard z score) ([3]; dose 0.08 uM): 0.864
- Dose.FC.LYZ.NS ([3]; dose 0.40 uM): 0.012 log2 fold change
- Z.LYZ.NS (standard z score) ([3]; dose 0.40 uM): 0.101
- Dose.FC.LYZ.NS ([3]; dose 2.00 uM): 0.053 log2 fold change
- Z.LYZ.NS (standard z score) ([3]; dose 2.00 uM): 0.462
- Dose.FC.LYZ.NS ([3]; dose 10.00 uM): 0.023 log2 fold change
- Z.LYZ.NS (standard z score) ([3]; dose 10.00 uM): 0.202

SMILES: C[C@H](NC(=O)[C@@H](O)c1cc(F)cc(F)c1)C(=O)N[C@@H]1C(=O)N(C)c2ccccc2-c2ccccc21 [LY411575]
- Dose.FC.CTG (log2 fold change) ([1]; dose 0.08 uM): 0.035
- Z.CTG (standard z score) ([1]; dose 0.08 uM): 0.083
- Dose.FC.CTG (log2 fold change) ([1]; dose 0.40 uM): −0.172
- Z.CTG (standard z score) ([1]; dose 0.40 uM): −0.411
- Dose.FC.CTG (log2 fold change) ([1]; dose 2.00 uM): −0.172
- Z.CTG (standard z score) ([1]; dose 2.00 uM): −0.412
- Dose.FC.CTG (log2 fold change) ([1]; dose 10.00 uM): −0.259
- Z.CTG (standard z score) ([1]; dose 10.00 uM): −0.618
- Dose.FC.LYZ.S (log2 fold change) ([2]; dose 0.08 uM): 0.024
- Dose.FC.LYZ.S (log2 fold change) ([2]; dose 0.40 uM): 0.041
- Dose.FC.LYZ.S (log2 fold change) ([2]; dose 2.00 uM): −0.091
- Dose.FC.LYZ.S (log2 fold change) ([2]; dose 10.00 uM): −0.157
- Dose.FC.LYZ.NS (log2 fold change) ([3]; dose 0.08 uM): 0.040
- Z.LYZ.NS (standard z score) ([3]; dose 0.08 uM): 0.347
- Dose.FC.LYZ.NS (log2 fold change) ([3]; dose 0.40 uM): −0.050
- Z.LYZ.NS (standard z score) ([3]; dose 0.40 uM): −0.434
- Dose.FC.LYZ.NS (log2 fold change) ([3]; dose 2.00 uM): −0.069
- Z.LYZ.NS (standard z score) ([3]; dose 2.00 uM): −0.598
- Dose.FC.LYZ.NS (log2 fold change) ([3]; dose 10.00 uM): −0.109
- Z.LYZ.NS (standard z score) ([3]; dose 10.00 uM): −0.949

SMILES: C=C[C@@]1(C)CC(=O)[C@]2(O)[C@@]3(C)[C@@H](O)CCC(C)(C)[C@@H]3[C@H](O)[C@H](OC(C)=O)[C@@]2(C)O1 [Forskolin]
- Dose.FC.CTG ([1]; dose 0.08 uM): −0.213 log2 fold change
- Dose.FC.CTG ([1]; dose 0.40 uM): −0.175 log2 fold change
- Dose.FC.CTG ([1]; dose 2.00 uM): −0.330 log2 fold change
- Dose.FC.CTG ([1]; dose 10.00 uM): −0.119 log2 fold change
- Dose.FC.LYZ.S ([2]; dose 0.08 uM): −0.004 log2 fold change
- Dose.FC.LYZ.S ([2]; dose 0.40 uM): 0.237 log2 fold change
- Dose.FC.LYZ.S ([2]; dose 2.00 uM): 0.102 log2 fold change
- Dose.FC.LYZ.S ([2]; dose 10.00 uM): 0.128 log2 fold change
- Dose.FC.LYZ.NS ([3]; dose 0.08 uM): −0.007 log2 fold change
- Dose.FC.LYZ.NS ([3]; dose 0.40 uM): 0.159 log2 fold change
- Dose.FC.LYZ.NS ([3]; dose 2.00 uM): 0.191 log2 fold change
- Dose.FC.LYZ.NS ([3]; dose 10.00 uM): 0.219 log2 fold change
- Z.LYZ.NS ([3]; dose 0.08 uM): −0.058
- Z.LYZ.NS ([3]; dose 0.40 uM): 1.381
- Z.LYZ.NS ([3]; dose 2.00 uM): 1.661
- Z.LYZ.NS ([3]; dose 10.00 uM): 1.905

SMILES: C[C@@H](c1ncncc1F)[C@](O)(Cn1cncn1)c1ccc(F)cc1F [Voriconazole]
- Dose.FC.CTG ([1]; dose 0.08 uM): 0.258 log2 fold change
- Dose.FC.CTG ([1]; dose 0.40 uM): 0.306 log2 fold change
- Dose.FC.CTG ([1]; dose 2.00 uM): 0.285 log2 fold change
- Dose.FC.CTG ([1]; dose 10.00 uM): 0.328 log2 fold change
- Dose.FC.LYZ.S ([2]; dose 0.08 uM): 0.180 log2 fold change
- Dose.FC.LYZ.S ([2]; dose 0.40 uM): 0.120 log2 fold change
- Dose.FC.LYZ.S ([2]; dose 2.00 uM): 0.097 log2 fold change
- Dose.FC.LYZ.S ([2]; dose 10.00 uM): 0.048 log2 fold change
- Dose.FC.LYZ.NS ([3]; dose 0.08 uM): 0.252 log2 fold change
- Z.LYZ.NS (standard z score) ([3]; dose 0.08 uM): 2.192
- Dose.FC.LYZ.NS ([3]; dose 0.40 uM): 0.193 log2 fold change
- Z.LYZ.NS (standard z score) ([3]; dose 0.40 uM): 1.682
- Dose.FC.LYZ.NS ([3]; dose 2.00 uM): 0.067 log2 fold change
- Z.LYZ.NS (standard z score) ([3]; dose 2.00 uM): 0.588
- Dose.FC.LYZ.NS ([3]; dose 10.00 uM): 0.018 log2 fold change
- Z.LYZ.NS (standard z score) ([3]; dose 10.00 uM): 0.153

SMILES: C#Cc1cccc(Nc2ncnc3cc4c(cc23)OCCOCCOCCO4)c1 [Icotinib]
- Dose.FC.CTG (log2 fold change) ([1]; dose 0.08 uM): −0.020
- Dose.FC.CTG (log2 fold change) ([1]; dose 0.40 uM): −0.061
- Dose.FC.CTG (log2 fold change) ([1]; dose 2.00 uM): −0.406
- Dose.FC.CTG (log2 fold change) ([1]; dose 10.00 uM): −1.068
- Dose.FC.LYZ.S (log2 fold change) ([2]; dose 0.08 uM): 0.094
- Dose.FC.LYZ.S (log2 fold change) ([2]; dose 0.40 uM): −0.090
- Dose.FC.LYZ.S (log2 fold change) ([2]; dose 2.00 uM): −0.243
- Dose.FC.LYZ.S (log2 fold change) ([2]; dose 10.00 uM): −0.419
- Dose.FC.LYZ.NS (log2 fold change) ([3]; dose 0.08 uM): 0.029
- Z.LYZ.NS (standard z score) ([3]; dose 0.08 uM): 0.255
- Dose.FC.LYZ.NS (log2 fold change) ([3]; dose 0.40 uM): −0.073
- Z.LYZ.NS (standard z score) ([3]; dose 0.40 uM): −0.632
- Dose.FC.LYZ.NS (log2 fold change) ([3]; dose 2.00 uM): −0.133
- Z.LYZ.NS (standard z score) ([3]; dose 2.00 uM): −1.160
- Dose.FC.LYZ.NS (log2 fold change) ([3]; dose 10.00 uM): −0.289
- Z.LYZ.NS (standard z score) ([3]; dose 10.00 uM): −2.518

SMILES: COc1ccc(COc2ccc(Cc3cnc(N)nc3N)cc2OC)cc1 [GW2580]
- Dose.FC.CTG (log2 fold change) ([1]; dose 0.08 uM): −0.042
- Z.CTG (standard z score) ([1]; dose 0.08 uM): −0.101
- Dose.FC.CTG (log2 fold change) ([1]; dose 0.40 uM): −0.284
- Z.CTG (standard z score) ([1]; dose 0.40 uM): −0.678
- Dose.FC.CTG (log2 fold change) ([1]; dose 2.00 uM): 0.029
- Z.CTG (standard z score) ([1]; dose 2.00 uM): 0.068
- Dose.FC.CTG (log2 fold change) ([1]; dose 10.00 uM): −0.038
- Z.CTG (standard z score) ([1]; dose 10.00 uM): −0.091
- Dose.FC.LYZ.S (log2 fold change) ([2]; dose 0.08 uM): −0.013
- Dose.FC.LYZ.S (log2 fold change) ([2]; dose 0.40 uM): 0.020
- Dose.FC.LYZ.S (log2 fold change) ([2]; dose 2.00 uM): −0.060
- Dose.FC.LYZ.S (log2 fold change) ([2]; dose 10.00 uM): −0.026
- Dose.FC.LYZ.NS (log2 fold change) ([3]; dose 0.08 uM): 0.006
- Z.LYZ.NS (standard z score) ([3]; dose 0.08 uM): 0.056
- Dose.FC.LYZ.NS (log2 fold change) ([3]; dose 0.40 uM): 0.014
- Z.LYZ.NS (standard z score) ([3]; dose 0.40 uM): 0.118
- Dose.FC.LYZ.NS (log2 fold change) ([3]; dose 2.00 uM): −0.060
- Z.LYZ.NS (standard z score) ([3]; dose 2.00 uM): −0.525
- Dose.FC.LYZ.NS (log2 fold change) ([3]; dose 10.00 uM): −0.018
- Z.LYZ.NS (standard z score) ([3]; dose 10.00 uM): −0.158
